Assays:
[1] = system: collagen and epinephrine induced thrombosis in mice; test: Effect on mouse thrombosis: collagen and adrenaline induced pulmonary thromboembolism; type: in vivo
Protocol: Pulmonary thromboembolism was induced by following a method of Diminno and Silver^(1). Test compounds (30 μM/Kg) or vehicle were administered orally 60 min prior to the thrombotic challenge. A mixture of collagen (150 μg/ml) and adrenaline (50 μg/mL) was administered by the rapid intravenous injection into the tail vein to induce hind limb paralysis or death. A group of 10 animals were used to evaluate the effect of test compound, while 5 mice were used to assess effect of a standard drug, aspirin and a group of vehicle treated (n=5) mice was also used each experiment.
% Protection was expressed as: […]
Ptest is the number of animals paralyzed/dead in the test compound-treated group, and Pcontrol is the number of animals paralyzed/dead in vehicle treated group.

[2] = system: stasis induced thrombosis in LPS treated rabbits; test: Rabbit venous thrombosis model (stasis induced thrombosis in LPS treated rabbits); type: in vivo, New Zealand white strain rabbits
Protocol: (§1) [formula] 1.4 Evaluation of coagulation parameters: Blood was collected by cardiac puncture from ether-anaesthetized rat using a syringe containing 3.2% tri-sodium citrate (9:1, v/v). Plasma was obtained by centrifugation of citrated blood at 2500×g for 15 min at 20° C. Stock solutions of the test compounds were prepared freshly in DMSO and were diluted in DMSO. Thrombin time (TT), prothrombin time (PT) and activated partial thromboplastin time (aPTT) were evaluated according to manufacturer's instructions supplied with kits (Stago, France) and measured by Coagulometer (Stago, France)^(4). In each set of experiment effect of DMSO on these parameters was also assessed and was used to calculate change in TT, PT or aPTT. 1.5 Rabbit venous thrombosis model: Experiments were performed on New Zealand white strain rabbits (2-3 kg) either sex. Escherichia coli LPS strain 1055:B5 (Sigma Chemicals, USA) was injected intravenously via ear vein (1 μg/kg)^(5,6). Jugular veins on both sides were exposed and dissected free from surrounding tissue. Two loose surer were placed 1.5 cm apart and all collateral veins were ligated. Four hours after E. coli endotoxin injection (animal is watched for any signs of hypersensitivity reaction during this period), stasis was established and maintained for 45 min by tightening the two sutures. Ligated segments were removed and opened longitudinally and the thrombus was carefully removed and weighed. Heparin sodium (Beparine from beef intestinal mucosa ≧140 USP units/mg; Biological E. Limited, India) was given in doses of (0.5, 0.25, 0.1 mg/kg i.v., via ear vein) 5 min before stasis. 1.6 Effect of compound (i) on human platelet aggregation in vitro: Platelet aggregation study was done on human platelets following isolation of PRP from the human blood as described above (1.3). Aggregation was induced by collagen (10 μg/ml, 5 μg/ml), ADP (10 μM) and thrombin (0.5 U/ml). 2. Results: Effect of test compounds is indicated in the following table (1) against collagen and epinephrine induced thrombosis in mice, which is a primary screening model to detect antithrombotic efficacy of the test agents. At the same dose these compounds were also evaluated for their effect on the bleeding time in mouse (Table 1).
(§2) Effect on venous thrombosis model in rabbit: The selected compounds were evaluated at 10 μM/Kg and 30 μM/kg dose for their efficacy against stasis induced thrombosis in LPS treated rabbits. […] Ex vivo effect of selective compounds on rat platelet aggregation: Blood was collected in sodium citrate to obtain PRP and evaluate the ex vivo effect of selective compounds ((i), (ii), (iii) at 30 μM/kg administered by the ip route) against ADP, collagen, phorbol myristate ester (PMA) calcium ionophore (A23187), or thrombin induced aggregation. It was observed that all these compounds were consistent against collagen-induced platelet aggregation (Table 3). (iii) inhibited ADP (10 μM), collagen (10 μg/ml), PMA (1.5 μM), and thrombin (0.64 U/ml) induced platelet aggregation while no inhibition was found against calcium ionophore A23187 (2.5 μg/ml) induced platelet aggregation. […] Effect on clotting parameters: The selected compounds were also tested in vitro for their effect on thrombin time (TT), prothrombin time (PT) and activated partial thromboplastin time (aPTT) at 100 μg/ml and 200 μg/ml in vitro (Table 4). The test compounds at 100 μg/ml had no significant effect of on these parameters. Some effect was though seen on PT at 200 μg/ml concentration, but the concentration seems to be quite high.
Values are Mean±; Compound (i); n=2, Compound (ii); n=4, Compound (iii), n=4 [n is no. of observations in 2 or more animals at 10 μM/Kg or 30 μM/Kg p.o. administered 2 h prior to the stasis] or vehicle control [n=10 observations in five animals]. In heparin treated group n=6 observations for each dose in nine animals.

[3] = system: thrombin time (TT), prothrombin time (PT) and activated partial thromboplastin time (aPTT); test: Evaluation of coagulation parameters (TT, PT, aPTT) in rat plasma in vitro; type: biochemical
Protocol: as §1, §2

rat platelet aggregation = test: Ex vivo effect on rat platelet aggregation (PRP, aggregometer); type: cell-based, Sprague Dawley rats; details: 30 μM/kg ip; for % Aggregation / % Inhibition: rat PRP
Protocol: Sodium citrate: The blood was centrifuged at 275×g for 20 min and the platelet rich plasma (PRP) was collect. The remaining blood was further centrifuged at 1500 g for 15 min at 20° C. to obtain platelet poor plasma (PPP). The platelet count in the PRP was adjusted to 2×10^8 cells/ml by using PPP. Adenosine-5′-diphosphate (ADP), thrombin, collagen, calcium ionophore A23187 or phorbol myristate ester (PMA) induced aggregation was monitored on a dual channel aggregometer (Chrono-log, USA). The test compound was incubated with PRP or 5 min before the addition of aggregation on inducing agent. Percent inhibition of the test compounds at various concentrations was calculated as follows: […]
as §2

[4] = 30 μM/kg orally 60 min prior to collagen + adrenaline challenge
[5] = 30 μM/Kg dose p.o. 2 h prior to the stasis

For `Cc1cc(C)c(S(=O)(=O)N2Cc3[nH]c4ccccc4c3CC2C(N)=O)c(C)c1` (stereo not shown) [v], the “Antithrombotic activity (AT) (% protection)” value [1, 4] was 30%.

In the case of `CS(=O)(=O)N1Cc2[nH]c3ccccc3c2CC1C(N)=O` (stereo not shown) [t, 2[methanesulfonyl]-1,2,3,4,-tetrahydro-9H-pyrido[3,4-b]indole-3-carboxylic acid amide], the “Antithrombotic activity (AT) (% protection)” value [1, 4] was 30%.

In the case of `COC(=O)C1Cc2c([nH]c3ccccc23)CN1S(=O)(=O)c1ccccc1[N+](=O)[O-]` (racemic) [c, 2[2, nitrobenzenesulfonyl]-1,2,3,4,-tetrahydro-9H-pyrido[3,4-b]indole-3-carboxylic acid ester], the “Antithrombotic activity (AT) (% protection)” value [1, 4] was 0%.

`COC(=O)C1Cc2c([nH]c3ccccc23)CN1S(=O)(=O)c1ccc(C)cc1` (racemic) [n, 2[4-methylbenzenesulfonyl]-1,2,3,4,-tetrahydro-9H-pyrido[3,4-b]indole-3-carboxylic acid ester] was tested, and the “inhibition of thrombus formation (in words)” value ([2]; evaluated at 10 μM/Kg and 30 μM/kg dose) was “inhibited thrombus formations only at 30 μM/Kg”.

`COC(=O)C1Cc2c([nH]c3ccccc23)CN1S(=O)(=O)c1cccc2cccnc12` (racemic) [f, 2[8-quinolinesulfonyl]-1,2,3,4,-tetrahydro-9H-pyrido[3,4-b]indole-3-carboxylic acid ester] was tested, and the “Antithrombotic activity (AT) (% protection)” value [1, 4] was 20%.

With `NC(=O)C1Cc2c([nH]c3ccccc23)CN1S(=O)(=O)c1cc(Cl)ccc1Cl` (stereo not shown) [o, 2[-2,5-dichlorobenzenesulfonyl]-1,2,3,4,-tetrahydro-9H-pyrido[3,4-b]indole-3-carboxylic acid amide] the “Antithrombotic activity (AT) (% protection)” value [1, 4] was 40%.

`COC(=O)C1Cc2c([nH]c3ccccc23)CN1S(=O)(=O)c1cccc2c(N(C)C)cccc12` (racemic) [g, 2-[dansylsulfonyl]-1,2,3,4,-tetrahydro-9H-pyrido[3,4-b]indole-3-carboxylic acid ester] was tested, and the “Antithrombotic activity (AT) (% protection)” value [1, 4] was 20%.

For `COC(=O)C1Cc2c([nH]c3ccccc23)CN1S(=O)(=O)c1cccc2ccccc12` (racemic) [d, 2[1-naphthylsulfonyl]-1,2,3,4,-tetrahydro-9H-pyrido[3,4-b]indole-3-carboxylic acid ester], the “Antithrombotic activity (AT) (% protection)” value [1, 4] was 20%.

For `COC(=O)C1Cc2c([nH]c3ccccc23)CN1S(=O)(=O)c1c(C)cc(C)cc1C` (racemic) [b, 2[2,4,6, trimethylbenzenesulfonyl]-1,2,3,4,-tetrahydro-9H-pyrido[3,4-b]indole-3-carboxylic acid ester], the “Antithrombotic activity (AT) (% protection)” value [1, 4] was 20%.

`COc1ccc2c(c1)c(CC(=O)O)c(C)n2C(=O)c1ccc(Cl)cc1` [Indomethacin, reference compound] was tested, and the “Antithrombotic activity (AT) (% protection)” value ([1]; 10 mg/kg (indomethacin)) was 55 ± 15 (n = 20) %.

In the case of `NC(=O)C1Cc2c([nH]c3ccccc23)CN1S(=O)(=O)c1ccc2ccccc2c1` (stereo not shown) [Compound (iii), 2-[2-naphthalenesulfonyl]-1,2,3,4,-tetrahydro-9H-pyrido[3,4-b]indole-3-carboxylic acid amide], the “% Reduction (thrombus wt.)” value [2, 5] was 57%, the Thrombus wt. [2, 5] was 11 ± 5 and the “Activated partial thromboplastin time (aPTT) % Change” value ([3]; 100 μg/ml in vitro) was 11 ± 4%. The “Prothrombin time (PT) % Change” value ([3]; 100 μg/ml in vitro) was −0.24 ± 0.8%, the “Thrombin time (TT) % Change” value ([3]; 100 μg/ml in vitro) was 10 ± 4% and the “Activated partial thromboplastin time (aPTT) % Change” value ([3]; 200 μg/ml in vitro) was 10 ± 8%. For the same compound, the “Prothrombin time (PT) % Change” value ([3]; 200 μg/ml in vitro) was 9 ± 0.2%, the “Thrombin time (TT) % Change” value ([3]; 200 μg/ml in vitro) was 6 ± 1% and the “protection against collagen and epinephrine induced thrombosis (in words)” value ([1]; 30 μM/kg) was “exhibited significant protection”. For the same compound, the “Antithrombotic activity (AT) (% protection)” value [1, 4] was 70 ± 0 (n = 3) %, the “% Aggregation” value (rat platelet aggregation; A23187 (2.5 μg/ml) induced) was 57 ± 6% and the “% Inhibition” value (rat platelet aggregation; A23187 (2.5 μg/ml) induced) was −25 ± 2%. For the same compound, the “inhibition of calcium ionophore A23187 induced platelet aggregation (in words)” value (rat platelet aggregation; A23187 (2.5 μg/ml), rat) was “no inhibition”, the “% Aggregation” value (rat platelet aggregation; ADP (10 μM) induced) was 2 ± 0.4% and the “% Inhibition” value (rat platelet aggregation; ADP (10 μM) induced) was 94 ± 0.2%. The “inhibition of ADP induced platelet aggregation (in words)” value (rat platelet aggregation; ADP (10 μM), rat) was “inhibited”, the “% Aggregation” value (rat platelet aggregation; Collagen (10 μg/ml) induced) was 2.5 ± 0% and the “% Inhibition” value (rat platelet aggregation; Collagen (10 μg/ml) induced) was 47 ± 13%. For the same compound, the “% Aggregation” value (rat platelet aggregation; PMA (1.5 μM) induced) was 38 ± 13%, the “% Inhibition” value (rat platelet aggregation; PMA (1.5 μM) induced) was 32 ± 5% and the “inhibition of PMA induced platelet aggregation (in words)” value (rat platelet aggregation; PMA (1.5 μM), rat) was “inhibited”. For the same compound, the “% Aggregation” value (rat platelet aggregation; Thrombin (0.64 U/ml) induced) was 28 ± 3%, the “% Inhibition” value (rat platelet aggregation; Thrombin (0.64 U/ml) induced) was 40 ± 6% and the “inhibition of collagen induced platelet aggregation (in words)” value (rat platelet aggregation; collagen (10 μg/ml), rat) was “inhibited”. The “inhibition of thrombin induced platelet aggregation (in words)” value (rat platelet aggregation; thrombin (0.64 U/ml), rat) was “inhibited”.

With `NC(=O)C1Cc2c([nH]c3ccccc23)CN1S(=O)(=O)c1cccc2cccnc12` (stereo not shown) [r, 2[8-quinolinesulfonyl]-1,2,3,4,-tetrahydro-9H-pyrido[3,4-b]indole-3-carboxylic acid amide] the “Antithrombotic activity (AT) (% protection)” value [1, 4] was 30%.

With `NC(=O)C1Cc2c([nH]c3ccccc23)CN1S(=O)(=O)c1ccc(F)cc1` (stereo not shown) [s, 2[-4-fluorobenzenesulfonyl]-1,2,3,4,-tetrahydro-9H-pyrido[3,4-b]indole-3-carboxylic acid amide] the “Antithrombotic activity (AT) (% protection)” value [1, 4] was 60%.

For `NC(=O)C1Cc2c([nH]c3ccccc23)CN1S(=O)(=O)c1cccc2ccccc12` (stereo not shown) [q, 2[-1-naphthylsulfonyl]-1,2,3,4,-tetrahydro-9H-pyrido[3,4-b]indole-3-carboxylic acid amide], the “Antithrombotic activity (AT) (% protection)” value [1, 4] was 20%.

In the case of `COC(=O)C1Cc2c([nH]c3ccccc23)CN1S(=O)(=O)c1ccc(OC)cc1` (racemic) [e], the “Antithrombotic activity (AT) (% protection)” value [1, 4] was 0%.

For `COC(=O)C1Cc2c([nH]c3ccccc23)CN1S(=O)(=O)c1c(C(C)C)cc(C(C)C)cc1C(C)C` (racemic) [h, 2[2,4,6 triisopropylbenzenesulfonyl]-1,2,3,4,-tetrahydro-9H-pyrido[3,4-b]indole-3-carboxylic acid ester], the “Antithrombotic activity (AT) (% protection)” value [1, 4] was 0%.

With `COC(=O)C1Cc2c([nH]c3ccccc23)CN1S(C)(=O)=O` (racemic) [k, 2[methylsulfonyl]-1,2,3,4,-tetrahydro-9H-pyrido[3,4-b]indole-3-carboxylic acid ester] the “Antithrombotic activity (AT) (% protection)” value [1, 4] was 50%.

`COC(=O)C1Cc2c([nH]c3ccccc23)CN1S(=O)(=O)c1ccc(F)cc1` (racemic) [i, 2[4-fluorobenzenesulfonyl]-1,2,3,4,-tetrahydro-9H-pyrido[3,4-b]indole-3-carboxylic acid ester] was tested, and the “Antithrombotic activity (AT) (% protection)” value [1, 4] was 0%.

`NC(=O)C1Cc2c([nH]c3ccccc23)CN1S(=O)(=O)c1cccc([N+](=O)[O-])c1` (stereo not shown) [u] was tested, and the “Antithrombotic activity (AT) (% protection)” value [1, 4] was 45%.

Source: US7601838B2, “2-Alkyl/aryl sulphonyl-1,2,3,4-tetrahydro-9H-pyrido (3,4-b) indole-3-carboxylic acid esters/amides useful as antithrombotic agents” (Council of Scientific and Industrial Research, priority 2004, dated 2009)
